Tests used:
[1] = Drug uptake in nucleus of human T24 cells at 100 nM after 30 mins by confocal microscopic analysis; assay type: ADME, cell-based; conditions: t-24, 0.5 h, 0.1 µM
T-24 [2] = assay: Cytotoxicity against human T24 cells assessed as growth inhibition after 24 hrs by MTT assay in absence of light; assay type: cell-based; conditions: T-24, 24 h
T-24 [3] = assay: Phototoxicity against human T24 cells assessed as growth inhibition incubated for 4 hrs followed by irradiation for 15 mins measured after 24 hrs by MTT assay; assay type: functional, cell-based; conditions: T-24, light or radiation study
[4] = Drug uptake in endoplasmic reticulum of human T24 cells at 100 nM after 30 mins by confocal microscopic analysis; assay type: ADME, cell-based; conditions: t-24, 0.5 h, 0.1 µM
[5] = Drug uptake in lysosome of human T24 cells at 100 nM after 30 mins by confocal microscopic analysis; assay type: ADME, cell-based; conditions: t-24, 0.5 h, 0.1 µM

Row | Structure (SMILES) | Drug uptake [1] | IC50 (T-24 [2]) [µM] | IC50 (T-24 [3]) [µM] | Drug uptake [4] | Drug uptake [5]
1 | CC1=C(I)C(C)=[N+]2C1=C(c1ccc(-c3cn(CC(=O)OC(C)(C)C)nn3)cc1)c1c(C)c(I)c(C)n1[B-]2(F)F | Not Active | > 10 | 0.042 | Not Active | Active
2 | CC1=C(I)C(C)=[N+]2C1=C(c1ccc(-c3cn(CC(=O)N4CCC[C@H]4C(=O)N[C@@H](CCCCN)C(=O)N[C@@H](CCCCN)C(=O)N[C@@H](CCCCN)C(=O)N[C@@H](CCCNC(=N)N)C(=O)N[C@@H](CCCCN)C(=O)N[C@H](C(N)=O)C(C)C)nn3)cc1)c1c(C)c(I)c(C)n1[B-]2(F)F | Not Active | > 10 | 0.016 | Active | Active

Source: ChEMBL document CHEMBL2384916, “Synthesis and in vitro evaluation of a PDT active BODIPY-NLS conjugate” (Bioorg Med Chem Lett, 2013)
